Test results taken from PubChem BioAssay (NCI).
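Assay format: 96-well plates, 48-hour exposure. TGI: total growth inhibition.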

What was measured:
Test in all cases: DTP human tumour cell line panel, 48 h
786-0 renal = system: 786-0 renal
A549 NSCLC = system: A549 NSCLC
ACHN renal = system: ACHN renal
BT-549 breast = system: BT-549 breast
CAKI-1 renal = system: CAKI-1 renal
COLO 205 colon = system: COLO 205 colon
DU-145 prostate = system: DU-145 prostate
EKVX NSCLC = system: EKVX NSCLC
HCC-2998 colon = system: HCC-2998 colon
HCT-116 colon = system: HCT-116 colon
HCT-15 colon = system: HCT-15 colon
HOP-62 NSCLC = system: HOP-62 NSCLC
HS 578T breast = system: HS 578T breast
HT29 colon = system: HT29 colon
IGROV1 ovarian = system: IGROV1 ovarian
KM12 colon = system: KM12 colon
LOX IMVI melanoma = system: LOX IMVI melanoma
M14 melanoma = system: M14 melanoma
MALME-3M melanoma = system: MALME-3M melanoma
MCF7 breast = system: MCF7 breast
MDA-MB-435 = system: MDA-MB-435
MDA-N = system: MDA-N
MOLT-4 leukemia = system: MOLT-4 leukemia
NCI-H226 lung = system: NCI-H226 lung
NCI-H23 lung = system: NCI-H23 lung
NCI-H460 lung = system: NCI-H460 lung
NCI-H522 lung = system: NCI-H522 lung
NCI/ADR-RES ovarian = system: NCI/ADR-RES ovarian
OVCAR-3 ovarian = system: OVCAR-3 ovarian
OVCAR-4 ovarian = system: OVCAR-4 ovarian
OVCAR-5 ovarian = system: OVCAR-5 ovarian
OVCAR-8 ovarian = system: OVCAR-8 ovarian
PC-3 prostate = system: PC-3 prostate
RPMI-8226 leukemia = system: RPMI-8226 leukemia
RXF 393 renal = system: RXF 393 renal
SF-268 CNS = system: SF-268 CNS
SF-295 CNS = system: SF-295 CNS
SF-539 CNS = system: SF-539 CNS
SK-MEL-2 melanoma = system: SK-MEL-2 melanoma
SK-MEL-28 melanoma = system: SK-MEL-28 melanoma
SK-OV-3 ovarian = system: SK-OV-3 ovarian
SN12C renal = system: SN12C renal
SNB-19 CNS = system: SNB-19 CNS
SNB-75 CNS = system: SNB-75 CNS
SR leukemia = system: SR leukemia
SW-620 colon = system: SW-620 colon
T-47D breast = system: T-47D breast
TK-10 renal = system: TK-10 renal
U251 CNS = system: U251 CNS
UACC-257 melanoma = system: UACC-257 melanoma
UACC-62 melanoma = system: UACC-62 melanoma
UO-31 renal = system: UO-31 renal
CCRF-CEM leukemia = system: CCRF-CEM leukemia
HL-60(TB) leukemia = system: HL-60(TB) leukemia
HOP-92 NSCLC = system: HOP-92 NSCLC
K-562 leukemia = system: K-562 leukemia
SK-MEL-5 melanoma = system: SK-MEL-5 melanoma

Measured: TGI

CN(c1c(Cl)cccc1Cl)S(=O)(=O)c1ccccc1[N+](=O)[O-]
not listed: CCRF-CEM leukemia | HL-60(TB) leukemia | HOP-92 NSCLC | K-562 leukemia | SK-MEL-5 melanoma
> 100 µM: all other assays above

CC(C)OP(=O)(OC(C)C)C(C(F)(F)F)C(F)(F)F
not listed: NCI-H460 lung
> 100 µM: all other assays above
